From patent US9585885B2, “Substituted pyrido[2,3-g]quinazolines as dopamine D2 receptor agonists” (KISSEI PHARMACEUTICAL CO., LTD., priority 2012, dated 2017)
Like-named read-outs stand apart in the source and are kept apart here.

How the values were obtained:
[1] = biological target: T1, human dopamine D2 receptor (Homo sapiens, UniProt P14416); test: Stimulating activities of human dopamine D2 receptor, [35S]GTPγS binding to hD2R#7 (HEK293) membrane homogenates; type: biochemical
T1 construct: expressed in transfected cells
T1 sequence (P14416 whole entry): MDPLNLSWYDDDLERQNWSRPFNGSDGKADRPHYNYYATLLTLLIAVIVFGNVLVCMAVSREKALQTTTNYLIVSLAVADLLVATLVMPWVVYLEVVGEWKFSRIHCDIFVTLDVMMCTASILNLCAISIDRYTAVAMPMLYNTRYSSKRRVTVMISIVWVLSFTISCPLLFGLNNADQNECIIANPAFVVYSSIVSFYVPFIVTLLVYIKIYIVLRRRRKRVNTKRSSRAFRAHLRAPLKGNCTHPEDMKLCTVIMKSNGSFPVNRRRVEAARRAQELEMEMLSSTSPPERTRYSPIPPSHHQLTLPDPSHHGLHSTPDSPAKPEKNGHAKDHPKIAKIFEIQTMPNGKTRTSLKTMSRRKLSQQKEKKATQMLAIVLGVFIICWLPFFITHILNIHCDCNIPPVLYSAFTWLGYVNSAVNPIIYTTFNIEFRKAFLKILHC
Method: Identification Test of Stimulating Activities on Human Dopamine D2 Receptor
The cells, which were grown to confluence in 150 mm dishes (IWAKI), were harvested with isotonic buffer (50 mM Tris (Sigma), 2 mM ethylenediamine-tetraacetic acid (Invitrogen), and 125 mM sodium chloride (Wako Pure Chemicals), pH 7.4) and centrifuged at 1880×g and 4° C. for 10 minutes, and the cell pellets were then suspended in isotonic buffer. After being subjected to one cycle of freezing and thawing, the cells were centrifuged at 1880×g and 4° C. for 10 minutes, and the cell pellets were suspended in isotonic buffer. The cells were centrifuged at 1880×g and 4° C. for 10 minutes, and the cell pellets were suspended in isotonic buffer and homogenate buffer (10 mM sodium bicarbonate (Nacalai) and 5 mM ethylenediamine-tetraacetic acid, pH 7.5). The volume ratio of isotonic-to-homogenate buffer was 2. The cells were sonicated and centrifuged at 1880×g and 4° C. for 10 minutes, and the supernatants were ultracentrifuged at 80000×g and 4° C. for 30 minutes. The final cell pellets were suspended in homogenate buffer containing protease inhibitor cocktail (Nacalai) and stored at −80° C. until use. The protein concentration was determined using BCA Protein Assay Kit (Pierce) in accordance with the manufacturer's instructions.
The stimulating activities of human dopamine D2 receptor was determined by measuring the binding potential of [^35S]-guanosine 5′-[gamma-thio]triphosphate ([^35S]GTPγS, PerkinElmer) according to the method described by Newman-Tancredi A. et al. (Naunyn-Schmiedeberg's Arch Pharmacol, 1999, vol. 359, pp. 447-453) with a minor modification. Test compounds and dopamine hydrochloride (Fluka) as positive control were dissolved in dimethyl sulfoxide (CARLBIOCHEM), resulting in 30 mM. The both compounds were diluted with assay buffer (50 mM Tris, 100 mM sodium chloride, 5 mM magnesium chloride (Nacalai), 1 mM ethylenediamine-tetraacetic acid, 1 mM dithiothreitol (Wako Pure Chemicals), 10 μM guanosine diphosphate (Wako Pure Chemicals) and 0.5% bovine serum albumin (Sigma), pH 7.4) to a final concentration of 100 pM (only test compounds), 1 nM, 10 nM, 100 nM, 1 μM, 10 μM and 100 μM (only dopamine hydrochloride). The above membrane homogenates and [^35S]GTPγS were diluted with assay buffer to a final concentration of 0.06 mg/mL and 0.6 nM, respectively. The serial diluted compounds (50 μL), the diluted membrane homogenates (50 μL) and the diluted [^35S]GTPγS (50 μL) were mixed on multi-screen 96-well plate (Millipore) and shaken lightly at room temperature for 60 minutes. The reaction was terminated by vacuum filtration with three times washes of ice-cold wash buffer (50 mM Tris, 100 mM sodium chloride, 5 mM magnesium chloride, and 1 mM ethylenediamine-tetraacetic acid, pH 7.4). After drying the bottoms of the plate at 60° C., MicroScinti-40 (PerkinElmer) (30 μL) was added in the plate. The tops of the plate were sealed by TopSeal-A (PerkinElmer), and the radioactivity was determined in a TopCount NXT (registered mark)(PerkinElmer) after shaking lightly for 5-10 minutes. The data was analyzed by nonlinear regression and sigmoidal dose-response curve fitting using GraphPad PRISM 4.0 (GraphPad Software), and values of EC50 (concentration of the compound producing half the maximal effect of the compound) were calculated. The data was presented as mean value (n=2).

[2] = biological target: T2, human serotonin 5-HT2B receptor (Homo sapiens, UniProt P41595); test: Stimulating activities of human serotonin 5-HT2B receptor, intracellular calcium in forced expression HEK293 cells; type: cell-based; conditions: intracellular calcium concentration, mean value (n=2)
T2 construct: expressed in transfected cells; host or cells: HEK293 (transient transfection)
T2 sequence (P41595 whole entry): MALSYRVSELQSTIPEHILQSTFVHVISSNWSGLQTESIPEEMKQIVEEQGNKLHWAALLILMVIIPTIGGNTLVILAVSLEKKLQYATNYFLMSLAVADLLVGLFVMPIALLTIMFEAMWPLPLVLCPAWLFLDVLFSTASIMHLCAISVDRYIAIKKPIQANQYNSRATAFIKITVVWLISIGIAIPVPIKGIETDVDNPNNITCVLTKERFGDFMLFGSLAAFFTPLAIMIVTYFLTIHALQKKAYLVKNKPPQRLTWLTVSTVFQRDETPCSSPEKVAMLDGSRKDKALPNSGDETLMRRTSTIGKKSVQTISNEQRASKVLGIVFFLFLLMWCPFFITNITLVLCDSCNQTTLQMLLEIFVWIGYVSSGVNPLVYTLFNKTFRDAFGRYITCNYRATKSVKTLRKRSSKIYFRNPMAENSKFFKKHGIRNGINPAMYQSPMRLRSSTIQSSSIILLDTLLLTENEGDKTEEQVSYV
Method: Identification Test of Stimulating Activities on Human Serotonin 5-HT2B Receptor
Mostly confluent HEK293 cells were washed with PBS, followed by exfoliation with 0.05% trypsin-EDTA and the cells were suspended in D-MEM liquid medium (phenol red-free, low glucose, pyruvic acid were contained) containing fetal bovine serum (final concentration: 10%) and GlutaMax (registered mark) I (final concentration: 2 mM). The suspension was scattered at 5×10^4 cells/100 μL/well on poly-D-lysine-coated 96-well microplate (BD BioCoat (registered mark)). The scattered cells were cultured in 5% CO2 incubator at 37° C. Human serotonin 5-HT2B receptor expression plasmid was transfected in that cells according to the procedure seeing below.
Human serotonin 5-HT2B receptor expression plasmid and Lipofectamine (registered mark) 2000 (Invitrogen) were diluted to 0.008 g/L and 0.016 g/L each other with OPTI-MEM (registered mark) I Reduced-Serum Medium and incubated at room temperature. After incubation, the human serotonin 5-HT2B receptor expression plasmid-diluted liquid and Lipofectamine (registered mark) 2000-diluted liquid were mixed at an equal volume and incubated at room temperature to form a complex. The complex was dispensed at 50 μL/well on the cells prepared above. The cells were incubated in 5% CO2 incubator at 37° C. for 2 days. After incubation, the cells were used as human serotonin 5-HT2B receptor forced expression cells for measurement of intracellular calcium concentration.
The stimulating activities of human serotonin 5-HT2B receptor was determined by measuring of intracellular calcium concentration. The 30 mM dimethyl sulfoxide (DMSO) solution contained test compounds or serotonin hydrochloride (Sigma) as positive control, was diluted with assay buffer ((HBSS), 20 mM HEPES, 1.3 mM calcium chloride, 0.5 mM magnesium chloride and 0.4 mM magnesium sulfate were contained, pH7.4) to appropriate concentration.
The forced expression cells were washed with assay buffer, and 100 μL/well of fluorescent calcium indicator (Fluo-4 NW Calcium Assay Kit) was added and incubated in 5% CO2 incubator at 37° C. After incubation, 50 μL/well of each test compound was added, and the concentration of intracellular calcium was measured as fluorescent signal with FlexStation (registered mark) II (Molecular Devices). The data was analyzed by nonlinear regression and sigmoidal dose-response curve fitting using GraphPad PRISM 4.0, and values of EC50 (concentration of the compound producing half the maximal effect of the compound) were calculated. The data was presented as mean value (n=2).

[3] = test system: unilateral 6-hydroxydopamine-lesioned hemi-Parkisonian rats; test: Contralateral rotational behavior in unilateral 6-hydroxydopamine-lesioned hemi-parkinsonian rats; type: in vivo, rat; conditions: orally 10 mg/kg, mean value; for Total number of rotations: contralateral rotations up to 24 hours after administration; for Duration: measured up to 24 hours after administration, duration of rotational response
Method: 6-OHDA was dissolved at 2 mg/mL in a physiolosical saline solution containing 0.2% L-ascorbic acid. Desipramine was dissolved at 10 mg/mL in a physiolosical saline solution in a hot-water bath. Apomorphine was dissolved at 0.1 mg/mL in a physiolosical saline solution. Ropinirole was dissolved in distilled water. Test compounds were dissolved in a solution containing 2% DMA, 100 or 200 mol % hydrochloric acid, and 98% of a 0.5% methyl cellulose solution. […] (Eur J Pharmacol, 2000, vol. 408, P. 249-255) with a minor modification. Male Sprague-Dawley rats (6-weeks-old, Charles River Laboratories Japan Inc.) were anaesthetized with intraperitoneal somnopentyl (45 mg/kg) injection and placed in a stereotaxic frame (Narishige). In order to prevent 6-OHDA-induced damage of noradrenergic neurons, desipramine (25 mg/kg) was intraperitoneally injected 30 minutes before the 6-OHDA injection. After the bregma identification via a middle calvarial incision, the skull was drilled using a dental drill at the site of 6-OHDA injection. The lesion was made by injecting 6-OHDA (8 μg in 4 μL at a speed of 1 μL/minute) unilaterally into the left medial forebrain bundle by using a injection cannula (30 gauge needle) connected to a microsyringe (Hamilton) (the lesion coordinates; A/P −2.5 mm, L/M −1.8 mm, and V/D −8.0 mm, from the bregma point and surface of the skull). The cannula was carefully removed from the animal after keeping placed on the lesion site for 5 minutes. The skull was filled its hole with dental cement, disinfected, and the scalp incision was surgically sutured. Animals recovered from anesthesia were housed as usual until the day of the experiment. Three weeks after the lesion, rats were tested on the basis of their contralateral rotational behavior (single rotation was defined as a 360° turn) in response to 0.1 mg/kg apomorphine given subcutaneously. For behavioral observation, rats were placed in plastic cylinders of a diameter of 30 cm, and its contralateral rotational behaviors were videotaped and quantified by rat-rotation auto counting system R-RACS (Kissei Wellcom). On the experimental day, animals were fasted overnight, and test compounds were orally administrated at doses of 10 mg/kg. The drug potency was measured until up to 24 hours after administration as the number of contralateral rotation. […] Total number of rotations and the duration of the response in experimental period were presented as mean value. As comparative example, ropinirole as non-ergot dopamine D2 receptor agonist, was examined in a similar fashion.

[4] = [35S]GTPγS binding, membrane homogenates, mean value (n=2), read-out: EC50

| EC50 [2] | SMILES | EC50 [1, 4] | Total number of rotations [3] | Duration [3] | EC50 [1] |
| --- | --- | --- | --- | --- | --- |
| > 10000 nM | CCCN1C[C@@H](NC(=O)N(C)CCc2ccncc2)C[C@@H]2Cc3nc(N)ncc3C[C@H]21 (relative stereo) [Compound 1-36] | 34 nM |  |  |  |
| > 10000 nM | CCCN1C[C@@H](NC(=O)N(CC)CCN2CCCCC2)C[C@@H]2Cc3nc(N)ncc3C[C@H]21 (relative stereo) [Compound 1-25, 3-[(5aR*,8S*,9aR*)-2-amino-6-propyl-5,5a,6,7,8,9,9a,10-octahydropyrido[2,3-g]quinazolin-8-yl]-1-ethyl-1-[2-(piperidin-1-yl)ethylurea] | 126 nM | 5025.0 | 621.3 minuets |  |
| > 10000 nM | CCCN1C[C@@H](NC(=O)N(C)CCN(C)c2ccccc2)C[C@@H]2Cc3nc(N)ncc3C[C@H]21 (relative stereo) [Compound 1-39] | 39 nM |  |  |  |
| > 10000 nM | CCCN1C[C@@H](NC(=O)N(CC)CCN2CCc3ccccc3C2)C[C@@H]2Cc3nc(N)ncc3C[C@H]21 (relative stereo) [Compound 1-33] | 93 nM |  |  |  |
|  | CCCN1C[C@@H](NC(=O)N(CCN(C)C)CC(C)C)C[C@@H]2Cc3nc(N)ncc3C[C@H]21 [Compound 1-3, 3-[(5aR,8S,9aR)-2-amino-6-propyl-5,5a,6,7,8,9,9a,10-octahydropyrido[2,3-g]quinazolin-8-yl]-1-[2-(dimethylamino)ethyl]-1-(2-methylpropyl)urea] |  | 3610.5 | 387.5 minuets |  |
| > 10000 nM | CCCN1C[C@@H](NC(=O)N2CCc3ccccc3C2)C[C@@H]2Cc3nc(N)ncc3C[C@H]21 (relative stereo) [Compound 1-37] | 10 nM |  |  |  |
| > 10000 nM | CCCN1C[C@@H](NC(=O)N(C)CCc2ccccc2)C[C@@H]2Cc3nc(N)ncc3C[C@H]21 (relative stereo) [Compound 1-11] | 19 nM |  |  |  |
|  | CCCN(CCC)CCc1cccc2c1CC(=O)N2 [Ropinirole, ropinirole, reference compound] |  | 276.3 | 61.3 minuets |  |
| > 10000 nM | CCCN1C[C@@H](NC(=O)N(CC)CCN(C)CCOC)C[C@@H]2Cc3nc(N)ncc3C[C@H]21 (relative stereo) [Compound 1-41] | 116 nM |  |  |  |
|  | CCCN1C[C@@H](CO)C[C@@H]2Cc3nc(N)ncc3C[C@H]21 (relative stereo) [compound 1, [(5aR*,8S*,9aR*)-2-amino-6-propyl-5,5a,6,7,8,9,9a,10-octahydropyrido[2,3-g]quinazolin-8-yl]methanol, reference compound] | 2900 nM |  |  |  |
|  | CCCN1C[C@@H](NC(=O)N(C)C)C[C@@H]2Cc3nc(N)ncc3C[C@H]21 [Compound 1-5] |  |  |  | 9 nM |

| SMILES | EC50 [2] | EC50 [1, 4] | Total number of rotations [3] | Duration [3] | EC50 [1] |
| --- | --- | --- | --- | --- | --- |
| CCCN1C[C@@H](NC(=O)N(CC)CCN(C)C)C[C@@H]2Cc3nc(N)ncc3C[C@H]21 [Compound 1-1, 3-[(5aR,8S,9aR)-2-Amino-6-propyl-5,5a,6,7,8,9,9a,10-octahydropyrido[2,3-g]quinazolin-8-yl]-1-[2-(dimethylamino)ethyl]-1-ethylurea] | > 10000 nM | 64 nM | 5038.5 | 541.3 minuets |  |
| CCCN1C[C@@H](NC(=O)N2CCCCC2)C[C@@H]2Cc3nc(N)ncc3C[C@H]21 (relative stereo) [Compound 1-34] | > 10000 nM | 63 nM |  |  |  |
| CCCN1C[C@@H](NC(=O)NC)C[C@@H]2Cc3nc(N)ncc3C[C@H]21 (relative stereo) [Compound 1-13] | > 10000 nM | 161 nM |  |  |  |
| CCCN1C[C@@H](NC(=O)N(C)CCN(CC)CC)C[C@@H]2Cc3nc(N)ncc3C[C@H]21 [Compound 1-4, 3-[(5aR,8S,9aR)-2-amino-6-propyl-5,5a,6,7,8,9,9a,10-octahydropyrido[2,3-g]quinazolin-8-yl]-1-[2-(diethylamino)ethyl]-1-methylurea] | > 10000 nM | 111 nM | 3975.0 | 538.8 minuets |  |
| CCCN1C[C@@H](NC(=O)N(C)CCOC)C[C@@H]2Cc3nc(N)ncc3C[C@H]21 (relative stereo) [Compound 1-12] | > 10000 nM | 43 nM |  |  |  |
| CCCN1C[C@@H](NC(=O)N(C)C2CC2)C[C@@H]2Cc3nc(N)ncc3C[C@H]21 (relative stereo) [Compound 1-16] | > 10000 nM | 93 nM |  |  |  |
